Counter-ions that a name gives are not always drawn.
Key:
non-pre-treated rat = assay: In vivo test: behavior, motility meter, non-pre-treated rats; conditions: for behavioral (motor) activity: 60 min session
[1] = system: 3,4-dihydroxyphenylacetic acid in the striatum; assay: In vivo test: neurochemistry, DOPAC in brain tissue; set-up: species or system rat; conditions: for 3,4-dihydroxyphenylacetic acid in the striatum: rat
Description: (§1) In vivo Test: Neurochemistry
(§2) After the behavioral activity sessions the rats were decapitated and their brains rapidly taken out and put on an ice-cold petri-dish. The limbic forebrain, the striatum, the frontal cortex and the remaining hemispheral parts of each rat were dissected and frozen. Each brain part was subsequently analyzed with respect to its content of monoamines and their metabolites. The monoaminergic indices analyzed were dopamine (DA), 3,4-dihydroxyphenylacetic acid (DOPAC), homovanillic acid (HVA), 3-methoxytyramine (3-MT), serotonin (5-HT), 5-hydroxyindole acetic acid ([…]), and noradrenaline (NA).

[2] = system: 5-hydroxyindoleacetic acid in the striatum; assay: In vivo test: neurochemistry, 5-hydroxyindoleacetic acid in brain tissue; conditions: rat; for 5-hydroxyindoleacetic acid in the striatum: 50 μmol/kg s.c.
Description: as §1
as §2, with “(NA). All monoaminergic indices in the dissected tissue were analyzed by means of HPLC with electrochemical detection as described by Svensson K, et al., 1986, Naunynschmiedeberg's Arch Pharmacol 334: 234-245 and references cited therein.” for “(NA).”

[3] = system: serotonin behavioral syndrome; assay: Serotonin behavioral syndrome; assay type: in vivo; conditions: rat
serotonin (5-HT) = assay: In vivo test: neurochemistry, serotonin in brain tissue; conditions: rat, 50 μmol/kg s.c.
Description: as §1
as §2, with “(NA). All monoaminergic indices in the dissected tissue were analyzed by means of HPLC with electrochemical detection as described by Svensson K, et al., 1986, Naunynschmiedeberg's Arch Pharmacol 334: 234-245 and references cited therein.” for “(NA).”

5-HT1A receptor = biological target: T1, 5-HT1A receptor (Homo sapiens, UniProt P08908); conditions: reported in WO 93/00313; cited from earlier work
T1 sequence (P08908 1-422): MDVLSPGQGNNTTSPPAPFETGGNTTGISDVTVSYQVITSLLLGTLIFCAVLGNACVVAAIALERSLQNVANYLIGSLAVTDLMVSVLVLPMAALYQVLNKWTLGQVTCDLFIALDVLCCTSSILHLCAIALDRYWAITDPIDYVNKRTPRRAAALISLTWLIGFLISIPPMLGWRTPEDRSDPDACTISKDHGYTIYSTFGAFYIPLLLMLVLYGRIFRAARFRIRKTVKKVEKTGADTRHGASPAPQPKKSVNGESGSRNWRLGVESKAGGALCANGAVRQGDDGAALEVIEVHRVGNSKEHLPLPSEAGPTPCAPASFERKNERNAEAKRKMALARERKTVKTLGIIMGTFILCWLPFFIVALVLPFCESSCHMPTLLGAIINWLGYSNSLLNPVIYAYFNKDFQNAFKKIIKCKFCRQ

[4] = system: rats pre-treated with d-amphetamine; assay: In vivo test: behavior, d-amphetamine induced hyperactivity
sigma receptor = conditions: 10 μmol/L, rat brain membranes
[5] = system: rats pre-treated with dizolcipine (Mk-801); conditions: Mk-801 0,7 mg/kg i.p.; test compound 50 μmol/kg sc
habituated rats = conditions: animals habituated to the motilitymeter box, 50 μmol/kg s.c.
[6] = non-pre-treated rat, 50 μmol/kg s.c.
[7] = non-pre-treated rat, 33 μmol/kg (s.c.)

## CCCN1CCN(c2cccc(S(C)(=O)=O)c2)CC1 (as salt: HCl)
other
  melting point: 233 °C

## CCCN1CCC(c2cccc(C(F)(F)F)c2)CC1 (as salt: HCl)
other
  melting point: 195 °C

## CCCCN1CCC(c2cccc(C(F)(F)F)c2)CC1 (as salt: HCl) [Example 5, 1-Butyl-4-(3-trifluoromethyl-phenyl)piperidine]
other
  melting point: 222 °C

## CCN1CCC(c2cccc(S(C)(=O)=O)c2)CC1 (as salt: HCl) [Example 8, 4-(3-Methanesulfonyl-phenyl)-1-ethyl-piperidine]
other
  melting point: 158 °C

## CC(C)N1CCC(c2cccc(S(C)(=O)=O)c2)CC1 (as salt: HCl) [Example 9, 1-Isopropyl-4-(3-methanesulfonyl-phenyl)-piperidine]
other
  melting point: 220 °C

## CC(C)CN1CCC(c2cccc(S(C)(=O)=O)c2)CC1 (as salt: HCl) [Example 11, 1-Isobutyl-4-(3-methanesulfonyl-phenyl)-piperidine]
other
  melting point: 212 °C

## CCCN1CCC(c2cccc(C#N)c2)CC1 (as salt: fumarate)
other
  melting point: 122 °C

## CCCN1CCN(c2cccc(OS(C)(=O)=O)c2)CC1 (as salt: fumarate) [Example 17, Methanesulfonic acid 3-(4-propyl-piperazin-1-yl)-phenyl ester]
other
  melting point: 143 to 144 °C

## CCCN1CCN(c2cccc(C(C)=O)c2)CC1 (as salt: oxalate)
other
  melting point: 119 °C

## CCCN1CCN(c2ccccc2OC)CC1 [1-(2-methoxy-phenyl)-4-propyl piperazine]
non-pre-treated rat; [6]
  behavioral (motor) activity: 67±34 cm/60 min
[1]; 50 μmol/kg s.c.
  3,4-dihydroxyphenylacetic acid in the striatum: 3836±65 ng/g tissue

## CS(=O)(=O)c1cccc(C2CCN(Cc3ccccc3)CC2)c1 [1-benzyl-4-(3-methanesulfonyl-phenyl)-piperidine]
[2]
  5-hydroxyindoleacetic acid in the striatum: 487±7 ng/g tissue
[3]
  serotonin behavioral syndrome: induces the serotonin behavioral syndrome
Serotonin (5-HT)
  serotonin (5-HT): 345±18 ng/g tissue

## FC(F)(F)c1cccc(N2CCN(CCc3ccccc3)CC2)c1 [1-phenethyl-4-(3-trifluoromethyl-phenyl)-piperazine]
[2]
  5-hydroxyindoleacetic acid in the striatum: 289±16 ng/g tissue
5-HT1A receptor
  IC50: 20.3 nM
[1]; 50 μmol/kg s.c.
  3,4-dihydroxyphenylacetic acid in the striatum: 1406±77 ng/g tissue
Serotonin (5-HT)
  serotonin (5-HT): 282±6 ng/g tissue

## CCCN1CCN(c2ccccc2)CC1 [1-phenyl-4-propyl-piperazine]
non-pre-treated rat; [7]
  behavioral activity: 1923±204 cm/60 min

## CCCN1CCN(c2cccc(C(F)(F)F)c2)CC1 [1-propyl-4-(3-triflouro-methyl-phenyl) piperazine]
non-pre-treated rat; [6]
  behavioral (motor) activity: 271±137 cm/60 min
[1]; 50 μmol/kg s.c.
  3,4-dihydroxyphenylacetic acid in the striatum: 3358±162 ng/g tissue

## CS(=O)(=O)c1cccc(N2CCN(CCO)CC2)c1 [2-[4-(3-methanesulfonyl-phenyl)piperazin-1-yl]-ethanol]
non-pre-treated rat; [7]
  behavioral activity: 3782±962 cm/60 min
[1]; 33 μmol/kg s.c.
  3,4-dihydroxyphenylacetic acid in the striatum: 1239±162 ng/g tissue

## Oc1cccc(C2CCN(Cc3ccccc3)CC2)c1 [3-(1-Benzyl-piperidin-4-yl)-phenol, 3-(1-benzyl-piperidin-4-yl)-phenol]
[2]
  5-hydroxyindoleacetic acid in the striatum: 492±26 ng/g tissue
Serotonin (5-HT); limbic region
  serotonin in the limbic region (5-HT): 677±20 ng/g tissue

## CCCN1CCN(c2cccc(C#N)c2)CC1 [3-(4-Propyl-piperazine-1-yl)-benzonitrile]
non-pre-treated rat; rat, 100 μmol/kg s.c.
  behavioral activity: 634±266 cm/60 min
[2]; 100 μmol/kg s.c.
  5-hydroxyindole acetic acid: 484±26 ng/g tissue
[1]; 100 μmol/kg s.c.
  3,4-dihydroxyphenylacetic acid in the striatum: 4498±243 ng/g tissue

## CCCN1CCC(c2ccc(S(C)(=O)=O)cc2)CC1 [4-(4-methanesulphonyl-phenyl)-1-propyl piperidine]
[1]; 50 μmol/kg s.c.
  3,4-dihydroxyphenylacetic acid in the striatum: 928±51 ng/g tissue

## CCCN1CCC(c2ccccc2)CC1 [4-phenyl-1-propyl-piperidine]
non-pre-treated rat; [7]
  behavioral activity: 2553±471 cm/60 min
[4]; d-amphetamine pre-treated, test compound 33 μmol/kg
  behavioral activity in the d-amphetamine stimulated: 13764±2919 cm/60 min
[1]; 33 μmol/kg s.c.
  3,4-dihydroxyphenylacetic acid in the striatum: 1190±70 ng/g tissue

## CCCN1CCC(c2cccc(S(C)(=O)=O)c2)CC1 [Example 6, 4-(3-Methanesulfonyl-phenyl)-1-propyl-piperidine]
non-pre-treated rat; [6]
  behavioral (motor) activity: 2879±398 cm/60 min
[4]; d-amphetamine 1.5 mg/kg s.c., test compound 50 μmol/kg s.c.
  d-Amphetamine hyperactivity: 1839±344 cm/60 min
Sigma receptor
  inhibition of [3H]-DTG binding: < 50%
[5]
  behavioral activation induced by dizolcipine (Mk-801): 18197±1389 cm/60 min
Habituated rats
  behavioral activity: 1243±72 cm/60 min
[1]; habituated animals, 50 μmol/kg s.c.
  4-dihydroxyphenylacetic acid in the striatum: 2074±144 ng/g tissue
[1]; 50 μmol/kg s.c.
  3,4-dihydroxyphenylacetic acid in the striatum: 1703±19 ng/g tissue

## CCCN1CCC(c2cccc(OS(C)(=O)=O)c2)CC1 [Example 14, Methanesulfonic acid 3-(1-propyl-piperidin-4-yl)-phenyl ester]
non-pre-treated rat; rat, 50 μmol/kg s.c., 30 min session
  behavioral activity: 2126±240 cm/30 min
[1]; 50 μmol/kg s.c.
  3,4-dihydroxyphenylacetic acid in the striatum: 3208±236 ng/g tissue

## Br.CCCN1CCC(c2cccc(O)c2)CC1 [preparation 14, 3-(1-Propyl-piperidin-4-yl)-phenol×HBr]
[1]; 50 μmol/kg s.c.
  3,4-dihydroxyphenylacetic acid in the striatum: 1169±42 ng/g tissue
